For orientation: IC50 means the concentration that gives 50% inhibition.

The text below walks through data of patent publication US20190119282A1, “IMIDAZOPYRIDAZINES USEFUL AS INHIBITORS OF THE PAR-2 SIGNALING PATHWAY” (Vertex Pharmaceuticals Incorporated, priority 2013, published 2019).

For assay [1], the system named is UTP-stimulated Ca2+ response in HT-29 cells. Briefly: Ca FLIPR TETRA assay, ANTAGONIST mode, stimulation with 0.6 μM UTP. As to conditions: Homo sapiens; HT-29 cells, antagonist mode, stimulation with 0.6 μM UTP. It counts as cell-based, human. The gist of the method:
(§1)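 Antagonist-mode FLIPR Tetra Ca2+ readout: after 30 min r.t. compound pre-incubation, HT-29 cells are challenged with trypsin (3.1 U/mL final), SLIGKV (8 μM), thrombin (1 U/mL) or UTP (0.6 μM). Cells were plated overnight in 1% FBS medium and dye-loaded with Calcium 5; an initial read checks compound agonism.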

The test system of assay [2] is Thrombin-stimulated Ca2+ response in HT-29 cells. Briefly: Ca FLIPR TETRA assay, ANTAGONIST mode, stimulation with 1 U/mL Thrombin. It counts as cell-based, human. As to conditions: Homo sapiens; HT-29 cells, antagonist mode, stimulation with 1 U/mL Thrombin. Summed up: as §1
Assay [3] deals with T1, PAR2 (HT-29 cells, SLIGKV activation) (Homo sapiens, UniProt P55085).
T1 construct: host or cells: HT-29 cells
T1 sequence (P55085 26-397): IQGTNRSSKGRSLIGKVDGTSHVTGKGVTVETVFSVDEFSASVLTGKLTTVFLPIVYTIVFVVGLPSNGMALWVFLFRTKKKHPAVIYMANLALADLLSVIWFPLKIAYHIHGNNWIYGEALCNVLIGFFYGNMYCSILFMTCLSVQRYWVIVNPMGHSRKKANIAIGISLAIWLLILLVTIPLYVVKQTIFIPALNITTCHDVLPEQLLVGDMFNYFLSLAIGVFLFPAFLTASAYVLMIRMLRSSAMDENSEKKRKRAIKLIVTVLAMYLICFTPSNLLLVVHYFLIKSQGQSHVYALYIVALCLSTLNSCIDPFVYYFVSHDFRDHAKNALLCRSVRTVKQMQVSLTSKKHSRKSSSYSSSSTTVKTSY
As to the kind of experiment: Ca FLIPR TETRA assay, ANTAGONIST mode, stimulation with 8 μM SLIGKV. It counts as cell-based. Particulars: HT-29 cells, antagonist mode, stimulation with 8 μM SLIGKV. Summed up: as §1

The target in assay [4] is T2, PAR2 (HT-29 cells, trypsin activation) (Homo sapiens, UniProt P55085).
T2 construct: host or cells: HT-29 cells
T2 sequence (P55085 26-397): T1 sequence (P55085 26-397)
As to the kind of experiment: Ca FLIPR TETRA assay, ANTAGONIST mode, stimulation with 3.1 U/mL trypsin. It counts as cell-based. As to conditions: HT-29 cells, antagonist mode, stimulation with 3.1 U/mL trypsin. The gist of the method:
as §1

For the molecule `CC1(C)CN(C(=O)C2CC(O)(C(F)(F)F)C2)CCN1C(=O)c1cn2nc(-c3ccc(F)cc3)cc(C3CCOCC3)c2n1` (centres unmarked) [Compound I-204], the IC50 is greater than 1000 nM in assay [1], greater than 1000 nM in assay [2], 42.5 nM in assay [3] and 93 nM in assay [4].
Turning to `CC(C)(C)c1cc(-c2ccc(F)cc2)nn2cc(C(=O)N3CCNCC3(C)C)nc12` [Compound I-205], the half-inhibitory concentration (IC50) in assay [1] was greater than 1000 nM; in assay [2], greater than 1000 nM; in assay [3], 310 nM; in assay [4], 580 nM.
In the case of `CC(C)(C)c1cc(-c2ccc(F)cc2)nn2cc(C(=O)N3CCN(C4CC4)C(=O)C3(C)C)nc12` [Compound I-206], the half-inhibitory concentration (IC50) in assay [1] was greater than 1000 nM; in assay [2], greater than 1000 nM; in assay [3], 0.8 nM; in assay [4], 0.8 nM.
As to `CC(C)N1CCN(C(=O)c2cn3nc(-c4ccc(F)cc4)cc(C(C)(C)C)c3n2)C(C)(C)C1=O` [Compound I-207], the IC50 in assay [1] was greater than 1000 nM; in assay [2], greater than 1000 nM; in assay [3] it was 9.8 nM; in assay [4], 8.3 nM.
Turning to `CC(C)(C)c1cc(-c2ccc(F)cc2)nn2cc(C(=O)N3CCN(C(F)F)C(=O)C3(C)C)nc12` [Compound I-208], the half-inhibitory concentration (IC50) in assay [1] was greater than 1000 nM; in assay [2] it was greater than 1000 nM; in assay [3] it was 85 nM; in assay [4], 103 nM.
In the case of `C[C@@H]1C[C@H](c2cc(-c3ccc(F)cc3)nn3cc(C(=O)N4CCN(C(=O)OC(C)(C)C)CC4(C)C)nc23)C[C@H](C)O1` [Compound I-209], the IC50 in assay [1] is greater than 1000 nM; in assay [2], greater than 1000 nM; in assay [3], 16.6 nM; in assay [4], 16.6 nM.
With `CC(C)(C)c1cc(-c2ccc(F)cc2)nn2cc(C(=O)N3CCN(C4COC4)C(=O)C3(C)C)nc12` [Compound I-210], the half-inhibitory concentration (IC50) in assay [1] was greater than 1000 nM; in assay [2], greater than 1000 nM; in assay [3], 4 nM; in assay [4], 3.5 nM.
Consider `CCN1CCN(C(=O)c2cn3nc(-c4ccc(F)cc4)cc(C(C)(C)C)c3n2)C(C)(C)C1=O` [Compound I-211], for which the IC50 was greater than 1000 nM in assay [1], greater than 1000 nM in assay [2], 5.4 nM in assay [3] and 4.5 nM in assay [4].
With `C=C(C)c1cc(-c2ccc(F)cc2)nn2cc(C(=O)N3CCN(C)C(=O)C3(C)C)nc12` [Compound I-212], the half-inhibitory concentration (IC50) in assay [1] was greater than 1000 nM; in assay [2], greater than 1000 nM; in assay [3], 90.3 nM; in assay [4], 54.7 nM.
In the case of `C[C@@H]1C[C@H](c2cc(-c3ccc(F)cc3)nn3cc(C(=O)N4CCN(C(=O)c5ccn[nH]5)CC4(C)C)nc23)C[C@H](C)O1` [Compound I-214], the half-inhibitory concentration (IC50) in assay [1] was greater than 1000 nM; in assay [2], no less than 1000 nM; in assay [3] it was 21.2 nM; in assay [4], 26.8 nM.
The matching figures for `CC(C)c1cc(-c2ccc(C(F)(F)F)cc2)nn2cc(C(=O)N3CCN(C(=O)C(C)(C)O)CC3(C)C)nc12` [Compound I-215]: greater than 1000 nM, greater than 1000 nM, 12 nM and 18.2 nM.
With `Cc1cccc(-c2cc(C(C)C)c3nc(C(=O)N4CCN(C(=O)C(C)(C)O)CC4(C)C)cn3n2)c1` [Compound I-216], the IC50 in assay [1] was greater than 1000 nM; in assay [2] it was greater than 1000 nM; in assay [3], 108 nM; in assay [4], 190 nM.
On to `CC(C)c1cc(-c2cccc(C(F)(F)F)c2)nn2cc(C(=O)N3CCN(C(=O)C(C)(C)O)CC3(C)C)nc12` [Compound I-217], for which the IC50 in assay [1] is greater than 1000 nM; in assay [2], greater than 1000 nM; in assay [3] it was 205 nM; in assay [4], 545 nM.
On to `Cc1ccc(-c2cc(C(C)C)c3nc(C(=O)N4CCN(C(=O)C(C)(C)O)CC4(C)C)cn3n2)cc1` [Compound I-218], for which the half-maximal inhibitory concentration (IC50) in assay [1] is greater than 1000 nM; in assay [2] it was greater than 1000 nM; in assay [3] it was 24.8 nM; in assay [4], 39.8 nM.
